From patent publication US20240252456A1, “ORAL COMPOSITION, SKIN COSMETIC AND HAIR COSMETIC” (MARUZEN PHARMACEUTICALS CO., LTD., priority 2021, published 2024)

Experiments:
AGEs = assay: Advanced glycation end product (AGEs) formation suppressive action test; details: type I collagen-coated plate, 0.2M D(−)-ribose, 37° C., 20 days
Procedure: In a 96-well type I collagen-coated plate (available from AGC Inc.), 100 μL of a mixed solution of 0.2M D(−)-ribose prepared with PBS(−) buffer solution and each of test samples (Samples 1 and 2, see Table 22 below for final concentrations) were added and statically placed at 37° C. for 20 days to form AGEs. In addition, PBS(−) buffer solution only as a negative control and a 0.2M D(−)-ribose solution prepared with PBS(−) buffer solution as a positive control were statically placed in the same manner. After 20 days, the amount of AGEs was measured by the ELISA method using an anti-AGEs antibody (available from TPANS GENIC INC.), and the AGEs formation suppressive action was evaluated. From the obtained results, the AGEs formation suppression rate (%) was calculated using the following equation.
Terms in the equation represent the following respective ones. • A: Absorbance at wavelength 405 nm in negative control • B: Absorbance at wavelength 405 nm in positive control • C: Absorbance at wavelength 405 nm with test sample addition

[1] = test system: Normal human neonatal epidermal keratinocytes (NHEK); assay: ATP production promotive action test (epidermal keratinocytes); assay type: cell-based; details: 2 hours
Procedure: Normal human neonatal epidermal keratinocytes (NHEK) were cultured using normal human epidermal keratinocyte growth medium (KGM), and then the cells were collected by a trypsin treatment. The collected cells were diluted with KGM to a cell density of 2.0×10^5 cells/mL, then seeded with 100 μL per well on a collagen-coated 96-well plate, and cultured overnight. After the culturing was completed, the medium was removed, and 100 μL of KGM to which each of test samples (Samples 1 and 2, see Table 13 below for final concentrations) was added was added to each well, and culturing was performed for 2 hours. As a control, culturing was performed in the same manner using KGM to which no sample was added.
The ATP production promotive action was determined by measuring the amount of ATP in cells using the firefly luciferase luminescence method. […] After the reaction, the amount of chemiluminescence proportional to the amount of intracellular ATP was measured using a chemiluminescence measurement device (available from Thermo Fisher Scientific, product name: Varioskan LUX multimode microplate reader). From the obtained results, the ATP production promotion rate (%) was calculated using the following equation. […]

CLDN1 mRNA = assay: Claudin-1 (CLDN1) mRNA expression promotive action test; assay type: cell-based, human; details: NHEK, 24 hours, corrected with GAPDH
Procedure: Normal human neonatal epidermal keratinocytes (NHEK) were precultured using normal human epidermal keratinocyte growth medium (KGM), and the cells were collected by a trypsin treatment. The collected cells were diluted with KGM to a cell density of 15×10^4 cells/mL, then seeded with 2 mL portions in a 6-well plate (30×10^4 cells/well), and cultured overnight under conditions of 37° C. and 5% CO2. After culturing, the medium was replaced with normal human epidermal keratinocyte basal medium (KBM, the above KGM without addition of growth additives (hEGF, BPE, insulin, antibacterial agents, hydrocortisone)), and culturing was further performed for 24 hours.
After culturing for 24 hours, the medium was removed, and 2 mL of each of test samples (Samples 1 and 3, see Table 19 below for final concentrations) dissolved in KBM was added to each well, and culturing was performed under conditions of 37° C. and 5% CO2 for 24 hours. As a control, culturing was performed in the same manner using KBM to which no sample was added. After culturing, the medium was removed, total RNA was extracted using ISOGEN II (available from NIPPON GENE CO., LTD.), each RNA amount was measured using a spectrophotometer, and the total RNA was prepared so as to be 150 ng/μL.
For CLDN1 and GAPDH as an internal standard, the expression levels of mRNA were measured using the above total RNA as a template. Detection was performed through a two-step real-time RT-PCR reaction using a real-time PCR device, Thermal Cycler Dice Real Time System III (available from Takara Bio Inc.), with PrimeScript™ RT Master Mix (Perfect Real Time) (available from Takara Bio Inc.) and TB Green® Fast qPCR Mix (available from Takara Bio Inc.). Primers available from Takara Bio Inc. were used. The expression level of CLDN1 mRNA was obtained as a value corrected with a value of GAPDH based on total RNA preparations prepared from cells cultured “with test sample addition” and “without sample addition.” From the obtained values, the CLDN1 mRNA expression promotion rate (%) was calculated using the following equation. […]

[2] = test system: Normal human dermal fibroblasts (NB1RGB); assay: Elastin production promotive action test; assay type: cell-based; details: 5 days
Procedure: Normal human dermal fibroblasts (NB1RGB) were cultured using Dulbecco's modified Eagle's medium (DMEM) containing 10% FBS, and then the cells were collected by a trypsin treatment. The collected cells were diluted with the above medium to a cell density of 2.2×10^5 cells/mL, then seeded with 100 μL per well in a 96-well microplate, and cultured overnight.
After the culturing was completed, the medium was removed, and 150 μL of each of test samples (Samples 2 and 3, see Table 7 below for final concentrations) dissolved in DMEM containing 0.25% FBS was added to each well, and culturing was performed for 5 days. As a control, culturing was performed in the same manner using DMEM containing 0.25% FBS to which no sample was added. After the culturing was completed, the supernatant was recovered, and the amount of elastin released in the culture supernatant was measured by ELISA method. From the measurement results, the elastin production promotion rate (%) was calculated using the following equation.
Terms in the equation represent the following respective ones. • A: Elastin amount with test sample addition • B: Elastin amount without sample addition

| SMILES | AGEs formation suppression rate (AGEs; 125 μmol/L) | AGEs formation suppression rate (AGEs; 500 μmol/L) | AGEs formation suppression rate (AGEs; 2000 μmol/L) | ATP production promotion rate ([1]; 6.25 μmol/L) | CLDN1 mRNA expression promotion rate (CLDN1 mRNA; 25 μmol/L) | CLDN1 mRNA expression promotion rate (CLDN1 mRNA; 100 μmol/L) | ATP production promotion rate ([1]; 25 μmol/L) | Elastin production promotion rate ([2]; 15.6 μmol/L) | Elastin production promotion rate ([2]; 62.5 μmol/L) | Elastin production promotion rate ([2]; 250 μmol/L) |
| --- | --- | --- | --- | --- | --- | --- | --- | --- | --- | --- |
| O=C(O)CCc1ccc(O)c(O)c1 [Sample 1, 3,4-Dihydroxyhydrocinnamic acid] | 45.7% | 69.4% | 78.4% | 106.7% | 256.6% | 568.6% | – | – | – | – |
| O=C(O)CCc1ccc(O)cc1 [Sample 2, 3-(4-Hydroxyphenyl)propionic acid] | – | – | 13.3% | – | – | – | 112.4% | 145.4% | 147.6% | 189.3% |
| O=C(O)CCc1ccccc1 [Sample 3, 3-phenylpropionic acid] | – | – | – | – | 125.5% | – | – | – | 174.0% | 239.0% |
